Results: patent publication US11034718B2, “C-3 novel triterpenone with C-17 reverse amide derivatives as HIV inhibitors” (HETERO LABS LIMITED, priority 2015, dated 2021)
Where a name gives a salt, the structure may show the parent alone. Read-outs that look alike come from different tables or passages of the source.

Test system: HIV-1 strain 92HT599
Test: Antiviral activity against HIV-1 strain 92HT599 in MT2 cells (p24 estimation)
Format: cell-based
Conditions: HIV-1 92HT599, ~96 hours
Protocol: Example 77: Evaluation of Compounds Antiviral Activity Against HIV-1 Strain 92HT599 in MT2 Cells
MT2 cells were infected with HIV-1 strain 92HT599 (10 TCID 50/30000 cells). The infected cells were plated at the concentration of 30,000 cells per well in 96 well plate. Test compound was added to the micro plate in defined format with the final concentration of DMSO (vehicle) is not more than 1%. Incubation was carried out in CO2 incubator for ˜96 hours for viral infection. At the end of incubation period an aliquot from each well was taken for p24 estimation. The quantitation of p24 is an index for antiviral activity of the compound. Percent inhibition was calculated with reference to control values (vehicle controls). p24 estimation was carried out using Advance biosciences kit as per the procedure detailed by supplier.

[1] = Human immunodeficiency virus 1, 0% serum binding assay, read-out: IC50 0% serum
[2] = Human immunodeficiency virus 1, 40% serum binding assay, read-out: IC50 40% serum

SMILES | IC50 [1] [nM] | IC50 [2] [nM]
CC(C)C1=C2[C@H]3CC[C@@H]4[C@@]5(C)CC[C@H](OC(=O)[C@H]6C[C@@H](C(=O)O)C6(C)C)C(C)(C)[C@@H]5CC[C@@]4(C)[C@]3(C)CC[C@@]2(NC(=O)C(C)(C)NC(=O)C2(c3ccc(Cl)cc3)CC2)CC1=O [Example 2, (1R,3S)-3-((((3aR,5aR,5bR,7aR,9S,11aR,11bR,13aS)-3a-(2-(1-(4-chlorophenyl)cyclopropane-1-carboxamido)-2-methylpropanamido)-1-isopropyl-5a,5b,8,8,11a-pentamethyl-2-oxo-3,3a,4,5,5a,5b,6,7,7a,8,9,10,11,11a,11b,12,13,13a-octadecahydro-2H-cyclopenta[a]chrysen-9-yl)oxy)carbonyl)-2,2-dimethylcyclobutane-1-carboxylic acid] | 3.01 to 10 | < 50
CC(C)C1=C2[C@H]3CC[C@@H]4[C@@]5(C)CC[C@H](OC(=O)[C@H]6C[C@@H](C(=O)O)C6(C)C)C(C)(C)[C@@H]5CC[C@@]4(C)[C@]3(C)CC[C@@]2(NC(=O)C(C)(C)NC(=O)c2ccccc2)CC1=O [Example 3, (1R,3S)-3-((((3aR,5aR,5bR,7aR,9S,11aR,11bR,13aS)-3a-(2-benzamido-2-methylpropanamido)-1-isopropyl-5a,5b,8,8,11a-pentamethyl-2-oxo-3,3a,4,5,5a, 5b,6,7,7a,8,9,10,11,11a,11b,12,13,13a-octadecahydro-2H-cyclopenta[a]chrysen-9-yl)oxy)carbonyl)-2,2-dimethylcyclobutane-1-carboxylic acid] | < 3 | < 50
CC(C)C1=C2[C@H]3CC[C@@H]4[C@@]5(C)CC[C@H](OC(=O)[C@H]6C[C@@H](C(=O)O)C6(C)C)C(C)(C)[C@@H]5CC[C@@]4(C)[C@]3(C)CC[C@@]2(NC(=O)C(C)(C)NC(=O)c2ccc(Cl)c(Cl)c2)CC1=O [Example 4, (1R,3S)-3-((((3aR,5aR,5bR,7aR,9S,11aR,11bR,13aS)-3a-(2-(3,4-dichlorobenzamido)-2-methylpropanamido)-1-isopropyl-5a,5b,8,8,11a-pentamethyl-2-oxo-3,3a,4,5,5a,5b,6,7,7a,8,9,10,11,11a,11b,12,13,13a-octadecahydro-2H-cyclopenta[a]chrysen-9-yl)oxy)carbonyl)-2,2-dimethylcyclobutane-1-carboxylic acid] | < 3 | < 50
CC(C)C1=C2[C@H]3CC[C@@H]4[C@@]5(C)CC[C@H](OC(=O)[C@H]6C[C@@H](C(=O)O)C6(C)C)C(C)(C)[C@@H]5CC[C@@]4(C)[C@]3(C)CC[C@@]2(NC(=O)C(C)(C)NC(=O)c2ccc(N)nc2)CC1=O [Example 6, (1R,3S)-3-((((3aR,5aR,5bR,7aR,9S,11aR,11bR,13aS)-3a-(2-(6-aminonicotinamido)-2-methylpropanamido)-1-isopropyl-5a,5b,8,8,11a-pentamethyl-2-oxo-3,3a,4,5,5a,5b,6,7,7a,8,9,10,11,11a,11b,12,13,13a-octadecahydro-2H-cyclopenta[a]chrysen-9-yl)oxy)carbonyl)-2,2-dimethylcyclobutane-1-carboxylic acid] | < 3 | 50 to 200
CC(C)C1=C2[C@H]3CC[C@@H]4[C@@]5(C)CC[C@H](OC(=O)[C@H]6C[C@@H](C(=O)O)C6(C)C)C(C)(C)[C@@H]5CC[C@@]4(C)[C@]3(C)CC[C@@]2(NC(=O)C(C)(C)NC(=O)[C@@H]2CCCN2C(=O)OC(C)(C)C)CC1=O [Example 8] | < 3 | < 50
CCN1CCN(CC(=O)NC(C)(C)C(=O)N[C@@]23CC[C@]4(C)[C@H](CC[C@@H]5[C@@]6(C)CC[C@H](OC(=O)[C@H]7C[C@@H](C(=O)O)C7(C)C)C(C)(C)[C@@H]6CC[C@]54C)C2=C(C(C)C)C(=O)C3)CC1 [Example 9, (1R,3S)-3-((((3aR,5aR,5bR,7aR,9S,11aR,11bR,13aS)-3a-(2-(2-(4-ethylpiperazin-1-yl)acetamido)-2-methylpropanamido)-1-isopropyl-5a,5b,8,8,11a-pentamethyl-2-oxo-3,3a,4,5,5a,5b,6,7,7a,8,9,10,11,11a,11b,12,13,13a-octadecahydro-2H-cyclopenta[a]chrysen-9-yl)oxy)carbonyl)-2,2-dimethylcyclobutane-1-carboxylic acid] | < 3 | > 200
CC(C)C1=C2[C@H]3CC[C@@H]4[C@@]5(C)CC[C@H](OC(=O)[C@H]6C[C@@H](C(=O)O)C6(C)C)C(C)(C)[C@@H]5CC[C@@]4(C)[C@]3(C)CC[C@@]2(NC(=O)C(C)(C)NC(=O)CN2CCCCC2)CC1=O [Example 10, (1R,3S)-3-((((3aR,5aR,5bR,7aR,9S,11aR,11bR,13aS)-1-isopropyl-5a,5b,8,8,11a-pentamethyl-3a-(2-methyl-2-(2-(piperidin-1-yl)acetamido)propan amido)-2-oxo-3,3a,4,5,5a,5b,6,7,7a,8,9,10,11,11a,11b,12,13,13a-octadecahydro-2H-cyclopenta[a]chrysen-9-yl)oxy)carbonyl)-2,2-dimethylcyclobutane-1-carboxylic acid] | < 3 | < 50
CC(C)C1=C2[C@H]3CC[C@@H]4[C@@]5(C)CC[C@H](OC(=O)[C@H]6C[C@@H](C(=O)O)C6(C)C)C(C)(C)[C@@H]5CC[C@@]4(C)[C@]3(C)CC[C@@]2(NC(=O)C(C)(C)NC(=O)C(C)(C)N)CC1=O [Example 11, (1R,3S)-3-((((3aR,5aR,5bR,7aR,9S,11aR,11bR,13aS)-3a-(2-(2-amino-2-methylpropanamido)-2-methylpropanamido)-1-isopropyl-5a,5b,8,8,11a-pentamethyl-2-oxo-3,3a,4,5,5a,5b,6,7,7a,8,9,10,11,11a,11b,12,13,13a-octadecahydro-2H-cyclopenta[a]chrysen-9-yl)oxy)carbonyl)-2,2-dimethylcyclobutane-1-carboxylic acid hydrochloride] | < 3 | 50 to 200
CC(C)C1=C2[C@H]3CC[C@@H]4[C@@]5(C)CC[C@H](OC(=O)[C@H]6C[C@@H](C(=O)O)C6(C)C)C(C)(C)[C@@H]5CC[C@@]4(C)[C@]3(C)CC[C@@]2(NC(=O)C(C)(C)NC(=O)c2ccc3[nH]cnc3c2)CC1=O [Example 12, (1R,3S)-3-((((3aR,5aR,5bR,7aR,9S,11aR,11bR,13aS)-3a-(2-(1H-benzo[d]imidazole-5-carboxamido)-2-methylpropanamido)-1-isopropyl-5a,5b,8,8,11a-pentamethyl-2-oxo-3,3a,4,5,5a,5b,6,7,7a,8,9,10,11,11a,11b,12,13,13a-octadecahydro-2H-cyclopenta[a]chrysen-9-yl)oxy)carbonyl)-2,2-dimethylcyclobutane-1-carboxylic acid] | < 3 | 50 to 200
Cc1ccc(-c2nc3cc(C(=O)NC(C)(C)C(=O)N[C@@]45CC[C@]6(C)[C@H](CC[C@@H]7[C@@]8(C)CC[C@H](OC(=O)[C@H]9C[C@@H](C(=O)O)C9(C)C)C(C)(C)[C@@H]8CC[C@]76C)C4=C(C(C)C)C(=O)C5)ccc3[nH]2)cn1 [Example 13, (1R,3S)-3-((((3aR,5aR,5bR,7aR,9S,11aR,11bR,13aS)-1-isopropyl-5a,5b,8,8,11a-pentamethyl-3a-(2-methyl-2-(2-(6-methylpyridin-3-yl)-1H-benzo[d]imidazole-5-carboxamido)propanamido)-2-oxo-3,3a,4,5,5a,5b,6,7,7a,8,9,10,11,11a,11b,12,13,13a-octadecahydro-2H-cyclopenta[a]chrysen-9-yl)oxy)carbonyl)-2,2-dimethylcyclobutane-1-carboxylic acid] | < 3 | < 50
